Results reported in patent publication US20230035403A1, “Method For Determining Responsiveness To Prostate Cancer Treatment” (Janssen Biotech, Inc., priority 2020, published 2023).

System: autologous CD3+ Pan-T cells (CD8+ and CD4+ T cells) with Ad5-transduced CD1c+ Dendritic Cells
Test: Endogenous autologous normal donor restimulation assay (Ad5-transduced dendritic cells)
Type: cell-based, human
Conditions: Table 27, restimulation with overlapping 15-mer peptide pools, maximum across sixteen donors
Description: CD1c+ Dendritic Cells (DC) isolated from human normal PBMCs were thawed using media (IMDM (Gibco) supplemented with glutamine, HEPES, 5% human serum (Sigma), and 1× Pen-Strep). DC cells were resuspended in media supplemented with IL-4 (Peprotech, 80 ng/mL) and GM-CSF (Gibco, 80 ng/mL), plated in 6 well microplates, and rested overnight at 37° C. (5% CO2). The following day, DC cells were counted and plated in a 96 well round bottom microplate at a concentration of 30,000 viable cells per well. Ad5 vectors (Vector Biolabs) were dilute in media to an MOI (Multiplicity Of Infection) of 5000 based on Plaque Forming Units. Ad5 vectors for the CEF pool and a “null” were used as controls. DCs were transduced with Ad5 vectors overnight at 37° C. (5% CO2). The following day, the Ad5 vectors were washed off the plate by three sequential centrifugation/aspiration steps using sterile Phosphate Buffered Saline. After the final wash, transduced DCs were resuspended in 100 μL media. Autologous CD3+ Pan-T cells isolated from human normal PBMCs were thawed using media. Pan-T cells were added to the irradiated DCs at 300,000 viable cells per well (100 μL/well). Human IL-15 (Peprotech) was added to all wells at final concentration of 10 ng/mL.
Plates were incubated at 37° C. (5% CO2) for a total of 12 days. Media was refreshed every 2-3 days with IL-15 (10 ng/mL final concentration) and IL-2 (R&D systems, 10 IU/mL final concentration). On day 11 lyophilized peptides (15-mer overlapping peptides) were solubilized in 100% DMSO and pooled by neoantigen to between 5 mg/mL and 20 mg/mL. […]
On day 12, cells were stained for intracellular flow cytometry analysis. […] Cells were washed and resuspended in stain buffer and analyzed using a BD Celesta flow cytometer.
Flow cytometry cell staining analysis was completed using FlowJo v10. […] The CD8+ and CD4+ T cells were analyzed for TNFα/IFNγ expression and the frequency of double positive TNFα/IFNγ CD8+ and the frequency of double positive TNFα/IFNγ CD4+ T cells were recorded. Responses were assessed to be positive when the frequency of double positive TNFα/IFNγ CD8+ or TNFα/IFNγ CD4+ T cells due to stimulation with an experimental peptide pool was increased greater than or equal to 3-fold over the DMSO only negative control for that donor and at least 0.01%.
For three of the neoantigens, an Ad5 vector was designed to transduce normal Dendritic cells with the neoantigens. This assay assessed the ability of the endogenously expressed and presented neoantigens to activate autologous T cells following overlapping 15-mer peptide pools restimulation using the endogenous autologous normal donor restimulation assay described in Example 1 utilizing TNFα and IFNγ production by CD8^+ and CD4^+ T cells as a readout. […]

Sequence: YEAGMTLGGKILFFLFLLLPLSPFSLIF [Neoantigen P87]
- Maximum Fold Change Over Background CD4+ cells: 2.41
- Maximum Fold Change Over Background CD8+ cells: 2.47
- Maximum Frequency of TNFα/IFNγ Double Positive CD4+ T cells: 0.079
- Maximum Frequency of TNFα/IFNγ Double Positive CD8+ T cells: 0.39
